Test results: the OPERA property sets (Mansouri et al. 2018)
Where a SMILES comes first, the peptide text is derived from it.

## OC1CCN(CCCc2ccccc2CSc2ccccc2)CC1
  logP: 3.85

## CCOC(=O)C(NC(=O)CCCCSc1[nH]cnc2ncnc1-2)c1ccccc1 (stereo not given)
  logP: 1.13

## CCNc1nc(SC)nc(C(Cl)(Cl)Cl)n1
  logP: 3.87

## OCC1CC(F)C(n2cnc3c(I)ncnc32)O1 (stereo not given)
  logP: 0.63

## Nc1nc(Cl)nc2c1ncn2C1OC(CO)C(O)C1O (stereo not given)
  logP: -0.37

## C[Si](Cn1cncn1)(c1ccc(F)cc1)c1ccc(F)cc1
  logP: 3.7

## CN1C(=O)CN=C(c2ccccc2Cl)c2cc([N+](=O)[O-])ccc21
  logP: 2.56

## Nc1nc(=O)n(C2CCC(CO)O2)cc1I (stereo not given)
  logP: -0.31

## Nc1ccccc1S(N)(=O)=O
  logP: 0.22

## Clc1ccc(-c2c(Cl)ccc(Cl)c2Cl)c(Cl)c1Cl
  logP: 7.04

## O=c1nc(N=CN2CCCC2)ccn1C1OC(CO)C(O)C1O (stereo not given)
  logP: -1.15

## CC(CO)OC(C)CO (stereo not given)
  logP: -0.67

## C#CCON=CNc1cc(Cl)c(OCC#C)c(Cl)c1
  logP: 3.3

## CCCCCNC(=O)C1(O)C(C)CC2C3CCC4=CC(=O)C=CC4(C)C3(F)C(O)CC21C (stereo not given)
  logP: 3.64

## NS(=O)(=O)c1cc(S(=O)(=O)c2ccc(CN3CCOCC3)cc2)cs1
  logP: 0.98

## N#CC(C#N)=NNc1ccccc1C(F)(F)F
  logP: 4.2

## CCC(=O)C1(c2cccc(OC(=O)OC)c2)CCN(C)CC1
  logP: 0.75

## C=CCn1cccn1
  logP: 0.35

## CC(=O)NC(Cc1ccccc1)C(=O)NC(CC(=O)O)C(=O)NC(CC(C)C)C(N)=O (stereo not drawn) (Ac-Phe-Asp-Leu-NH2; configuration not given here)
  logP: 0.39

## CCC(C)C(NC(=O)C(CC(C)C)NC(C)=O)C(=O)NC(CCC(=O)O)C(N)=O (stereo not drawn) (Ac-Leu-Ile-Glu-NH2; configuration not given here)
  logP: 0.07

## COc1c([N+](=O)[O-])nc(C)n1C
  logP: -0.09

## CCC1(C(C)c2ccccc2)C(=O)NC(=O)N(C)C1=O (stereo not given)
  logP: 3.14

## COc1nc(N(C)C)nc(C(Cl)(Cl)Cl)n1
  logP: 3.33

## CCCN1C(=O)NC(=O)C(=O)C1=O
  logP: 0.28

## O=C(c1ccc(F)cc1)C1CCN(CCn2c(=O)[nH]c3ccccc3c2=O)CC1
  logP: 3.29

## N#CCc1ccc(O)c2ncccc12
  logP: 1.81

## C#CCOc1c(Cl)cc(NC=NOCOCC)cc1Cl
  logP: 3.5

## CC12CCC(=O)C=C1CCC1C2CCC2(C)C1CCC21CCC(=O)O1 (stereo not given)
  logP: 2.98

## O=c1nc(N=CN2CCOCC2)ccn1C1OC(CO)C(O)C1O (stereo not given)
  logP: -1.66

## O=C(O)CCCCC(S)CCS (stereo not given)
  logP: 2.41

## NC(=O)c1ccccc1N=NN1CCC1
  logP: 2.91

## Clc1ccc(Cl)c(-c2c(Cl)c(Cl)c(Cl)c(Cl)c2Cl)c1
  logP: 7.93

## CC(=O)NC(CCCN)C(=O)NC(Cc1ccccc1)C(N)=O (stereo not given)
  logP: 0.41

## CN1C=CCC(C(=O)OC2CCC(NC(=O)N(CCCl)N=O)CC2)=C1 (stereo not given)
  logP: 2.53

## c1ccc(SCc2ccccc2CCCN2CCOCC2)cc1
  logP: 3.8

## Clc1cc(Cl)c2oc3c(Cl)cc(Cl)c(Cl)c3c2c1
  logP: 6.34

## Cc1ncc([N+](=O)[O-])n1CC#N
  logP: -0.07

## CC(C)(C)C(=O)OCn1cc2c(=O)[nH]cnc2n1
  logP: 0.79

## O=C(O)CCc1cc(=O)c2cc3c(cc2o1)CCCC3
  logP: 2.85

## O=C(O)Cc1nn(Cc2nc3cc(Br)ccc3s2)c(=O)c2ccccc12
  logP: 3.35

## CCCN(C=Nc1ccn(C2OC(CO)C(O)C2O)c(=O)n1)CCC (stereo not given)
  logP: 0.24

## CCCCOC(=O)C(C(=O)OCCCC)=C1SCCS1
  logP: 4.6

## COP(=O)(OC)O/C(C)=C/C(=O)OC(C)c1ccccc1 (stereo not given)
  logP: 3.3

## Cc1n[nH]c(C(=O)NC2CC2)c1[N+](=O)[O-]
  logP: 0.25

## Nc1nc2c(ncn2C2OC(CO)CC2F)c(=O)[nH]1 (stereo not given)
  logP: -1.18

## CCC(=O)C(CS(=O)(=O)c1ccccc1)c1ccccc1 (stereo not given)
  logP: 1.82

## CN1C(C(=O)Nc2nccs2)=C(O)c2ccccc2S1(=O)=O
  logP: 1.64

## CCN1CCN(C(=O)N[C@@H](C(=O)N[C@@H]2C(=O)N3[C@@H]2SC(C)(C)[C@@H]3C(=O)O)c2ccccc2)C(=O)C1=O
  logP: 0.5

## O=C(O)C(OCc1ccc(Cl)cc1)c1ccccc1 (stereo not given)
  logP: 2.6

## COc1ccc(Cc2cccc(-c3c(O)c4ccc(Cl)cc4[nH]c3=O)c2)cc1
  logP: 4.8

## Clc1ccc(-c2ccccc2)c(Cl)c1Cl
  logP: 5.86

## Cc1ncnc2c1ncn2C1CCC(CO)O1 (stereo not given)
  logP: -0.12

## CCN(CC)C(=O)OCCCc1cccnc1
  logP: 2.36

## CC1=C(/C=C/C(C)=C/C=C/C(C)=C/CO)C(C)(C)CCC1
  logP: 5.68

## CCC(C)NC(=O)C(=Cc1ccccc1)c1ccccc1 (stereo not given)
  logP: 4.05

## O=c1nc(N=CN2CCCCC2)ccn1C1OC(CO)C(O)C1O (stereo not given)
  logP: -0.66

## Nc1nc(N)nc(C(Cl)(Cl)Cl)n1
  logP: 1.24

## CON=C(C(=O)NC1C(=O)N2C(C(=O)OCOC(=O)C(C)(C)C)=CCSC12)c1csc(N)n1 (stereo not given)
  logP: 1.76

## COc1ccc2cc(C(C)C(=O)OCC(N)=O)ccc2c1 (stereo not given)
  logP: 2.06

## Cc1ccc(SCCNc2ccccc2C(N)=O)cc1
  logP: 3.15

## COC1CC(OC2CCC3(C=O)C4CCC5(C)C(C6=CC(=O)OC6)CCC5(O)C4CCC3(O)C2)OCC1OC1CC(O)C(O)C(C)O1 (stereo not given)
  logP: -0.96

## Cc1ccc(C(=O)COc2c(C(=O)c3ccc(Cl)c(C)c3Cl)c(C)nn2C)cc1
  logP: 4.69

## C#CCOc1c(Cl)cc(NC=NOCCCl)cc1Cl
  logP: 3.7

## COc1cccc(N2CCN(CCN(C)C)C2=O)c1
  logP: 1.76

## Cc1ccc(OCc2ccccc2CCCN2CCC(O)CC2)cc1
  logP: 3.5

## COCC(Cn1ccnc1[N+](=O)[O-])OC (stereo not given)
  logP: 0.06

## O=[N+]([O-])C=C1SCCN1Cc1ccc(Cl)nc1
  logP: 0.65

## Clc1cc(-c2cc(Cl)c(Cl)c(Cl)c2Cl)c(Cl)c(Cl)c1Cl
  logP: 8.68

## COC(=O)c1ccccc1CS(=O)(=O)Nc1nc(OC)cc(OC)n1
  logP: 2.4

## Cc1nonc1Cc1ccc([N+](=O)[O-])cc1
  logP: 2.21

## C=CCOC1=NS(=O)(=O)c2ccccc21
  logP: 1.4

## Sc1nc(-c2ccccc2)ns1
  logP: 2.13

## COc1ccc(OCc2ccccc2CCCN2CCC(O)CC2)cc1
  logP: 3.1

## CC(=O)c1ccc2c(c1)OCCOCCOCCOCCOCCO2
  logP: -0.05

## CC(C)(C)NCC(O)COCCCc1ccccc1 (stereo not given)
  logP: 2.58

## CC(=O)N(CCO)c1c(I)c(C(=O)NC(CO)CO)c(I)c(C(=O)NC(CO)CO)c1I
  logP: -2.33

## Cc1cccc(C)c1NC(=O)c1ccc(CN2CCOCC2)cc1
  logP: 2

## Clc1cc(Cl)cc(-c2cc(Cl)c(Cl)c(Cl)c2Cl)c1
  logP: 7.43

## O=C(Cc1ccccc1)NCCNCC(O)COCc1ccccc1 (stereo not given)
  logP: 1.45

## COC(=O)C(C#N)=NNc1ccc(S(=O)(=O)C(F)(F)F)cc1
  logP: 4.22

## CCN1C(=O)C(=O)c2ccccc2C1=O
  logP: 1.13

## CCOCCN(CCOCC)CC(O)c1cc(-c2ccc(Cl)c(Cl)c2)nc2ccccc12 (stereo not given)
  logP: 5.76

## Cc1cccc(C)c1NC(=O)c1cccc(CN2CCCCC2)c1
  logP: 3.47

## O=[N+]([O-])N=C1NCCN1Cc1cccnc1
  logP: -0.19

## CC(C)(C)C(=O)CC(C(O)C(C)(C)C)n1cncn1 (stereo not given)
  logP: 1.95

## Cc1ccc(C2(Cn3cncn3)OCCO2)cc1
  logP: 1.55

## CNCCN(C)S(=O)(=O)c1ccc(CONC(N)=O)c([N+](=O)[O-])c1
  logP: 0.45

## CCC1(CCC(C)C)C(=O)NC(=O)N(C)C1=O (stereo not given)
  logP: 2.45

## CCCCOC(=O)n1cc(F)c(=O)[nH]c1=O
  logP: 0.89

## CCCC(=O)OCCOCn1cnc2c(=O)[nH]c(N)nc21
  logP: -0.08

## CCC(C)OC(=O)C(C(=O)OC(C)CC)=C1SC=CS1 (stereo not given)
  logP: 4.89

## Cc1ncc([N+](=O)[O-])n1CCOC(=O)N(C)C
  logP: 0.47

## O=C(O)CCCCCCCc1ccccc1
  logP: 4.09

## CN(C)N=Nc1ccc2oc3ccccc3c2c1
  logP: 4.55

## Cc1c(O)c(=O)ccn1-c1ccc([N+](=O)[O-])cc1
  logP: 0.76

## CN(CO)c1nc(N(C)CO)nc(N(C)CO)n1
  logP: 0.4

## COc1ccc(NC(=O)OCCN2CCOCC2)cc1
  logP: 1.7

## CCOC(=S)NCCn1c([N+](=O)[O-])cnc1C
  logP: 1.5

## C#CCOc1c(Cl)cc(NC=NOCC#N)cc1Cl
  logP: 3

## COC1(NC(=O)CSC(F)F)C(=O)N2C(C(=O)OCOC(=O)C(C)(C)C)=C(CSc3nnnn3C)CSC21 (stereo not given)
  logP: 2.31

## COC(=O)n1cnc(CC(NC(=O)C2CCC(=O)N2)C(=O)N2CCCC2C(N)=O)c1 (stereo not given)
  logP: -1.88

## C1CCC2=NCCCN2CC1
  logP: 1.38

## O=c1cccccc1
  logP: 0.26

## COC(O)Cn1c([N+](=O)[O-])nc(Br)c1Br (stereo not given)
  logP: 1.02

## CCOC(=O)c1cc(S(N)(=O)=O)c(Cl)cc1NCc1ccco1
  logP: 2.67

## CCCCNC(=O)c1n[nH]c(C)c1[N+](=O)[O-]
  logP: 1.27

## C#CCC(O)(c1cccnc1)c1ccc2ccccc2c1 (stereo not given)
  logP: 2.14

## CNC(=O)C1(O)C(C)CC2C3CCC4=CC(=O)C=CC4(C)C3(F)C(O)CC21C (stereo not given)
  logP: 1.54

## Clc1cc2oc3c(Cl)cc(Cl)c(Cl)c3c2cc1Cl
  logP: 6.26

## C[Si](C)(C)C
  logP: 3.24

## CC(C)(C)C(=O)C(C#N)=NNc1cc(C(F)(F)F)cc(C(F)(F)F)c1
  logP: 5.44

## CN(C)N=Nc1ccc(S(=O)(=O)CCO)cc1
  logP: 1.15

## Cc1cc(O)cc(Br)c1O
  logP: 1.38

## Cc1ccc(Cl)c(C)c1
  logP: 3.83

## CCCCC(=O)OCCOCn1cnc2c(=O)[nH]c(N)nc21
  logP: 0.37

## CC(C)CCCNC(=O)C1(O)C(C)CC2C3CCC4=CC(=O)C=CC4(C)C3(F)C(O)CC21C (stereo not given)
  logP: 3.93

## CNC(=O)C(Cc1ccc(O)cc1)NC(C)=O (stereo not given)
  logP: -0.32

## Cc1c(Cl)c(Cl)c(Cl)c(Cl)c1Cl
  logP: 5.62

## Fc1ccc(SCc2ccc(CCCN3CCOCC3)cc2)cc1
  logP: 3.51

## O=C(CCn1ccnc1[N+](=O)[O-])NCCO
  logP: -1.08

## CCCCCOc1ccc(NC(=O)OCCN2CCOCC2)cc1
  logP: 3.96

## CCCn1cnc2c(NC(C)=O)ncnc21
  logP: 0.09

## CC(C)NCC(COc1cccc2ccccc12)OS(=O)(=O)O (stereo not given)
  logP: 1.16

## O=C1OC(O)C(C(Cl)Cl)=C1Cl (stereo not given)
  logP: 1.13

## C[C@H](O)C(=O)Nc1c(I)c(C(=O)NC(CO)CO)c(I)c(C(=O)NC(CO)CO)c1I
  logP: -2.42

## CCC(=O)C(CS(=O)(=O)c1ccc(C)cc1)c1ccccc1 (stereo not given)
  logP: 2.45

## CNC(=C[N+](=O)[O-])NCCSCc1nccs1
  logP: -0.15

## O=C(O)c1cc(Oc2cc(C(F)(F)F)ccc2Cl)ccc1[N+](=O)[O-]
  logP: 3.7

## O=P([O-])(Oc1ccc(Cl)cc1)Oc1ccc(Cl)cc1
  logP: 2.64

## CCc1ccc(OCc2ccccc2CCCN2CCC(O)CC2)cc1
  logP: 3.75
